Source: the supplement of paper PMC8617591

Tests used:
[1] = test system: Mycobacterium tuberculosis Erdman (autoluminescent); experiment: Einf, fitted maximum growth inhibition of three-drug combination (fraction); higher = stronger maximal inhibition
Experimental: (§1)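 DiaMOND equipotent three-drug combination dose responses (10 doses, 1.5- or 2-fold spacing, centred on IC90) against autoluminescent M. tuberculosis Erdman in 8 in vitro models. Read-out is OD600, or luminescence for the intracellular and dormancy models, normalised to untreated wells. Hill-fit Einf, AUC25 and GRinf are potency metrics; FIC50 and FIC90 are total Loewe fractional inhibitory concentrations as log2 (negative = synergy).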

[2] = test system: Mycobacterium tuberculosis Erdman (autoluminescent); experiment: total FIC90 (Loewe) at 90% inhibition, three-drug combination (log2); higher = more antagonistic
Experimental: as §1

[3] = test system: Mycobacterium tuberculosis Erdman (autoluminescent); experiment: GRinf, maximum normalised growth rate inhibition (three-drug combination) (unitless (-1 to 1)); higher = less effect (negative = killing)
Experimental: as §1

[4] = test system: Mycobacterium tuberculosis Erdman (autoluminescent); experiment: total FIC50 (Loewe) at 50% inhibition, three-drug combination (log2); higher = more antagonistic
Experimental: as §1

[5] = test system: Mycobacterium tuberculosis Erdman (autoluminescent); experiment: AUC25, normalised area under dose response up to IC25 (three-drug combination) (fraction (0-1)); higher = more potent at low dose
Experimental: as §1

CC[C@@H](CO)NCCN[C@@H](CC)CO [ethambutol] + O=[N+]([O-])c1cn2c(n1)OC[C@@H](OCc1ccc(OC(F)(F)F)cc1)C2 [pretomanid] + CO[C@H]1/C=C/O[C@@]2(C)Oc3c(C)c(O)c4c(O)c(c(/C=N/N5CCN(C6CCCC6)CC5)c(O)c4c3C2=O)NC(=O)/C(C)=C\C=C\[C@H](C)[C@H](O)[C@@H](C)[C@@H](O)[C@@H](C)[C@H](OC(C)=O)[C@@H]1C [rifapentine]
Conditions	AUC25, [5]	Einf, [1]	GRinf, [3]	total FIC50, [4]	total FIC90, [2]
in vitro model: acidic pH 5.7, time point: constant (~7 days, model-specific)	0.109	0.881	-0.167	-0.27	–
in vitro model: acidic pH 5.7, time point: terminal (~4-5 doublings, model-specific)	0.0593	0.965	-0.136	-0.17	-0.213
in vitro model: intracellular J774, time point: constant = terminal	–	0.983	-0.509	–	-1.96

Conditions	AUC25, [5]	Einf, [1]	GRinf, [3]	total FIC50, [4]	total FIC90, [2]
in vitro model: butyrate, time point: constant (~7 days, model-specific)	0.0719	0.917	0.00142	0.274	–
in vitro model: butyrate, time point: terminal (~4-5 doublings, model-specific)	0.0544	0.96	0.0016	0.212	-0.372
in vitro model: cholesterol 0.05 mM, time point: constant (~7 days, model-specific)	0.103	0.743	-0.355	0.946	–
in vitro model: cholesterol 0.05 mM, time point: terminal (~4-5 doublings, model-specific)	0.0797	0.923	-0.204	1.14	–
in vitro model: cholesterol-high 0.2 mM, time point: constant (~7 days, model-specific)	0.0331	0.825	-0.056	1.15	–
in vitro model: cholesterol-high 0.2 mM, time point: terminal (~4-5 doublings, model-specific)	0.0353	1	-0.701	1.34	1.42
in vitro model: dormancy (butyrate + nitrate, low O2), time point: constant (~7 days, model-specific)	0.115	0.832	0.245	0.472	–
in vitro model: dormancy (butyrate + nitrate, low O2), time point: terminal (~4-5 doublings, model-specific)	0.0993	0.964	-0.137	0.154	0.383
in vitro model: standard 7H9 glycerol, time point: constant = terminal	0.0595	0.912	0.0905	0.054	–
in vitro model: valerate, time point: constant (~7 days, model-specific)	0.0932	0.882	-0.0094	0.185	–
in vitro model: valerate, time point: terminal (~4-5 doublings, model-specific)	0.0526	0.938	0.0245	0.593	0.229

CC(C)/N=c1\cc2n(-c3ccc(Cl)cc3)c3ccccc3nc-2cc1Nc1ccc(Cl)cc1 [clofazimine] + NC(=O)c1cnccn1 [pyrazinamide] + CO[C@H]1/C=C/O[C@@]2(C)Oc3c(C)c(O)c4c(O)c(c(/C=N/N5CCN(C)CC5)c(O)c4c3C2=O)NC(=O)/C(C)=C\C=C\[C@H](C)[C@H](O)[C@@H](C)[C@@H](O)[C@@H](C)[C@H](OC(C)=O)[C@@H]1C [rifampicin]
Conditions	AUC25, [5]	Einf, [1]	GRinf, [3]	total FIC50, [4]	total FIC90, [2]
in vitro model: acidic pH 5.7, time point: constant (~7 days, model-specific)	0.0832	0.905	-0.142	-0.249	–
in vitro model: acidic pH 5.7, time point: terminal (~4-5 doublings, model-specific)	0.0739	0.988	-0.217	-0.174	-0.451
in vitro model: intracellular J774, time point: constant = terminal	–	0.995	-0.387	–	-0.136

Conditions	AUC25, [5]	Einf, [1]	GRinf, [3]	total FIC50, [4]	total FIC90, [2]
in vitro model: butyrate, time point: constant (~7 days, model-specific)	0.115	0.918	-0.091	0.234	0.505
in vitro model: butyrate, time point: terminal (~4-5 doublings, model-specific)	0.0935	0.967	-0.0615	0.0552	0.0714
in vitro model: cholesterol 0.05 mM, time point: constant (~7 days, model-specific)	0.122	0.657	-0.00769	–	–
in vitro model: cholesterol 0.05 mM, time point: terminal (~4-5 doublings, model-specific)	0.106	0.894	-0.15	1.2	–
in vitro model: cholesterol-high 0.2 mM, time point: constant (~7 days, model-specific)	0.113	0.864	-0.605	1.06	–
in vitro model: cholesterol-high 0.2 mM, time point: terminal (~4-5 doublings, model-specific)	0.107	1	-0.764	1.43	1.53
in vitro model: dormancy (butyrate + nitrate, low O2), time point: constant (~7 days, model-specific)	0.0887	0.949	0.12	-0.433	-1.62
in vitro model: dormancy (butyrate + nitrate, low O2), time point: terminal (~4-5 doublings, model-specific)	0.0801	0.994	-0.455	-0.413	0.318
in vitro model: standard 7H9 glycerol, time point: constant = terminal	0.114	0.935	0.0256	-0.361	–
in vitro model: valerate, time point: constant (~7 days, model-specific)	0.106	0.813	0.205	0.653	–
in vitro model: valerate, time point: terminal (~4-5 doublings, model-specific)	0.0497	0.896	0.165	0.53	1.88

CC(=O)NC[C@H]1CN(c2ccc(N3CCOCC3)c(F)c2)C(=O)O1 [linezolid] + COc1c(N2C[C@@H]3CCCN[C@@H]3C2)c(F)cc2c(=O)c(C(=O)O)cn(C3CC3)c12 [moxifloxacin] + CO[C@H]1/C=C/O[C@@]2(C)Oc3c(C)c(O)c4c(O)c(c(/C=N/N5CCN(C6CCCC6)CC5)c(O)c4c3C2=O)NC(=O)/C(C)=C\C=C\[C@H](C)[C@H](O)[C@@H](C)[C@@H](O)[C@@H](C)[C@H](OC(C)=O)[C@@H]1C [rifapentine]
Conditions	AUC25, [5]	Einf, [1]	GRinf, [3]	total FIC50, [4]	total FIC90, [2]
in vitro model: acidic pH 5.7, time point: constant (~7 days, model-specific)	0.0572	0.8	0.0276	0.827	–
in vitro model: acidic pH 5.7, time point: terminal (~4-5 doublings, model-specific)	0.0558	0.976	-0.0724	0.952	0.684
in vitro model: intracellular J774, time point: constant = terminal	–	0.911	-0.0811	–	0.0429

Conditions	AUC25, [5]	Einf, [1]	GRinf, [3]	total FIC50, [4]	total FIC90, [2]
in vitro model: butyrate, time point: constant (~7 days, model-specific)	0.0841	0.876	0.149	0.365	0.691
in vitro model: butyrate, time point: terminal (~4-5 doublings, model-specific)	0.0527	0.929	0.0958	0.352	0.196
in vitro model: cholesterol 0.05 mM, time point: constant (~7 days, model-specific)	0.157	0.694	-0.35	0.586	–
in vitro model: cholesterol 0.05 mM, time point: terminal (~4-5 doublings, model-specific)	0.129	0.909	-0.32	0.581	-0.237
in vitro model: cholesterol-high 0.2 mM, time point: constant (~7 days, model-specific)	0.11	0.913	-0.639	0.553	0.386
in vitro model: cholesterol-high 0.2 mM, time point: terminal (~4-5 doublings, model-specific)	0.113	1	-0.938	0.377	0.836
in vitro model: dormancy (butyrate + nitrate, low O2), time point: constant (~7 days, model-specific)	0.0602	0.862	0.223	1.04	0.925
in vitro model: dormancy (butyrate + nitrate, low O2), time point: terminal (~4-5 doublings, model-specific)	0.0346	0.979	-0.11	1.31	1.02
in vitro model: standard 7H9 glycerol, time point: constant = terminal	0.0607	0.902	0.0317	0.709	0.569
in vitro model: valerate, time point: constant (~7 days, model-specific)	0.109	0.834	0.129	0.0907	–
in vitro model: valerate, time point: terminal (~4-5 doublings, model-specific)	0.0452	0.914	0.0886	0.472	0.387
